From patent US20210113617A1, “METHODS AND COMPOSITIONS FOR TH9 CELL MEDIATED CANCER TREATMENT” (Wake Forest University Health Sciences, priority 2018, published 2021) come the findings set out here.

For assay [1], the system named is OT-II-Th17 cells. The assay can be described thus: QNZ on restimulated OT-II-Th17 cells (CFSE dilution). Type of assay: cell-based, mice. The following applies: restimulated with antigen-pulsed APCs for 2 days in presence of QNZ. How it is done:
(§1) CFSE labeling and cytotoxicity assay. In some experiments, Th cells were incubated for 5 minutes at 37° C. with 1 μM CFSE in PBS, and then washed extensively. We measured proliferation of T cells by the relative CFSE dilution method after stimulation or transfer into tumor-bearing mice. In the cytotoxicity assay, B16-OVA target cells or B16 non-target cells for OT-II T cells were labeled with 5 μM CFSE. B16-OVA target cells or B16 non-target control cells were incubated alone in triplicate with the OT-II T cells at a 1:10 effector-to-target ratio. For TRP-1 T cells, B16 target cells or MC38 non-target control cells were used. After 18 hours, CFSE^+ tumor cells from each target and control well were stained using FVD and analyzed by FACS. FVD^+ tumor cells were considered as dead cells. The percent specific lysis was calculated as (FVD^+ target−FVD^+ control)×100%.
(§2) Moreover, we further confirmed the increased proliferative capacity of Th9 cells by CFSE-dilution assay and by calculating the cell yields after the first-round activation and the subsequent reactivation (FIGS. 5G-5H).

Assay [2] deals with OT-II-Th9 cells. Put plainly: QNZ on restimulated OT-II-Th9 cells (CFSE dilution, cell yield, Annexin V/PI). It counts as cell-based, mice. How it is done:
as §1, §2

On to `Nc1ccc2ncnc(NCCc3ccc(Oc4ccccc4)cc3)c2c1` [QNZ], for which the “proliferation of Th17” value in assay [1] is reported as “minimal effect”. Moreover, the Th9 hyperproliferation entry in assay [2] (restimulated with OT-II peptide-pulsed APCs in presence of QNZ for 48 hours) is “significantly arrested Th9 hyperproliferation”. Moreover, the Th9 cell apoptosis result in assay [2] (restimulated with antigen-pulsed APCs for 2 days in presence of QNZ) is “did not induce Th9 cell apoptosis”.
